Experimental data published in PubChem BioAssay (NCI).
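These data come from cells grown in 96-well plates and exposed to compound for 48 hours at five concentrations. At the GI50, growth is halved. TGI denotes the concentration required for complete inhibition of growth.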

How the values were obtained:
Test in all cases: NCI-60 cell line screen, 48 h
IGROV1 ovarian = test system: IGROV1 ovarian
BT-549 breast = test system: BT-549 breast
COLO 205 colon = test system: COLO 205 colon
MOLT-4 leukemia = test system: MOLT-4 leukemia
SK-MEL-5 melanoma = test system: SK-MEL-5 melanoma
SNB-19 CNS = test system: SNB-19 CNS
HOP-62 NSCLC = test system: HOP-62 NSCLC
CCRF-CEM leukemia = test system: CCRF-CEM leukemia
UO-31 renal = test system: UO-31 renal
CAKI-1 renal = test system: CAKI-1 renal
RXF 393 renal = test system: RXF 393 renal
OVCAR-3 ovarian = test system: OVCAR-3 ovarian
OVCAR-5 ovarian = test system: OVCAR-5 ovarian
PC-3 prostate = test system: PC-3 prostate
SF-268 CNS = test system: SF-268 CNS
MALME-3M melanoma = test system: MALME-3M melanoma
ACHN renal = test system: ACHN renal
KM12 colon = test system: KM12 colon
MDA-MB-435 = test system: MDA-MB-435
SK-MEL-28 melanoma = test system: SK-MEL-28 melanoma
SK-MEL-2 melanoma = test system: SK-MEL-2 melanoma
UACC-62 melanoma = test system: UACC-62 melanoma
NCI-H23 lung = test system: NCI-H23 lung
NCI-H460 lung = test system: NCI-H460 lung
NCI/ADR-RES ovarian = test system: NCI/ADR-RES ovarian
HS 578T breast = test system: HS 578T breast
TK-10 renal = test system: TK-10 renal
UACC-257 melanoma = test system: UACC-257 melanoma
SF-295 CNS = test system: SF-295 CNS
DU-145 prostate = test system: DU-145 prostate
NCI-H226 lung = test system: NCI-H226 lung
A498 renal = test system: A498 renal
EKVX NSCLC = test system: EKVX NSCLC
HCT-15 colon = test system: HCT-15 colon
786-0 renal = test system: 786-0 renal
HCT-116 colon = test system: HCT-116 colon
NCI-H522 lung = test system: NCI-H522 lung
HT29 colon = test system: HT29 colon
SN12C renal = test system: SN12C renal
MDA-MB-468 breast = test system: MDA-MB-468 breast
M14 melanoma = test system: M14 melanoma
T-47D breast = test system: T-47D breast
MCF7 breast = test system: MCF7 breast
U251 CNS = test system: U251 CNS
HL-60(TB) leukemia = test system: HL-60(TB) leukemia
OVCAR-8 ovarian = test system: OVCAR-8 ovarian
OVCAR-4 ovarian = test system: OVCAR-4 ovarian
SK-OV-3 ovarian = test system: SK-OV-3 ovarian
MDA-MB-231 breast = test system: MDA-MB-231 breast
SW-620 colon = test system: SW-620 colon
SR leukemia = test system: SR leukemia
LOX IMVI melanoma = test system: LOX IMVI melanoma
HCC-2998 colon = test system: HCC-2998 colon
A549 NSCLC = test system: A549 NSCLC
RPMI-8226 leukemia = test system: RPMI-8226 leukemia
K-562 leukemia = test system: K-562 leukemia
SF-539 CNS = test system: SF-539 CNS

## Cc1ccc2nc3c(nc2c1)c1cc(I)ccc1n3CCN(C)C
IGROV1 ovarian
  GI50: 4.87 µM
  TGI: 18.5 µM
BT-549 breast
  GI50: 14.8 µM
  TGI: 28.8 µM
COLO 205 colon
  GI50: 3.56 µM
  TGI: 16.7 µM
MOLT-4 leukemia
  GI50: 7.02 µM
  TGI: 24.8 µM
SK-MEL-5 melanoma
  GI50: 12.1 µM
  TGI: 25.2 µM
SNB-19 CNS
  GI50: 9.48 µM
  TGI: 21.4 µM
HOP-62 NSCLC
  GI50: 4.81 µM
  TGI: 20.5 µM
CCRF-CEM leukemia
  GI50: 12.6 µM
  TGI: 28.7 µM
UO-31 renal
  GI50: 1.92 µM
  TGI: 15.8 µM
CAKI-1 renal
  GI50: 3.78 µM
  TGI: 17.9 µM
RXF 393 renal
  GI50: 4.24 µM
  TGI: 15.7 µM
OVCAR-3 ovarian
  GI50: 5.63 µM
  TGI: 18.7 µM
OVCAR-5 ovarian
  GI50: 5.36 µM
  TGI: 18.5 µM
PC-3 prostate
  GI50: 3.84 µM
  TGI: 17.5 µM
SF-268 CNS
  GI50: 5.36 µM
  TGI: 19.2 µM
MALME-3M melanoma
  GI50: 10.3 µM
  TGI: 23.1 µM
ACHN renal
  GI50: 3.05 µM
  TGI: 13.2 µM
KM12 colon
  GI50: 4.13 µM
  TGI: 16.8 µM
MDA-MB-435
  GI50: 7.41 µM
  TGI: 20 µM
SK-MEL-28 melanoma
  GI50: 13.8 µM
  TGI: 26.7 µM
SK-MEL-2 melanoma
  GI50: 13.2 µM
  TGI: 26.4 µM
UACC-62 melanoma
  GI50: 11.7 µM
  TGI: 24 µM
NCI-H23 lung
  GI50: 6.07 µM
  TGI: 19.6 µM
NCI-H460 lung
  GI50: 3.51 µM
  TGI: 14 µM
NCI/ADR-RES ovarian
  GI50: 4.67 µM
  TGI: 18.4 µM
HS 578T breast
  GI50: 12.5 µM
  TGI: 34.3 µM
TK-10 renal
  GI50: 13.8 µM
  TGI: 27.8 µM
UACC-257 melanoma
  GI50: 13.4 µM
  TGI: 27 µM
SF-295 CNS
  GI50: 4.09 µM
  TGI: 16.2 µM
DU-145 prostate
  GI50: 5.04 µM
  TGI: 16.8 µM
NCI-H226 lung
  GI50: 5.98 µM
  TGI: 23.4 µM
A498 renal
  GI50: 14.2 µM
  TGI: 29.3 µM
EKVX NSCLC
  GI50: 7.08 µM
  TGI: 20.9 µM
HCT-15 colon
  GI50: 3.14 µM
  TGI: 12.9 µM
786-0 renal
  GI50: 5.54 µM
  TGI: 19.1 µM
HCT-116 colon
  GI50: 3.6 µM
  TGI: 14.4 µM
NCI-H522 lung
  GI50: 4.64 µM
  TGI: 18.5 µM
HT29 colon
  GI50: 3.42 µM
  TGI: 13.4 µM
SN12C renal
  GI50: 3.92 µM
  TGI: 15.5 µM
MDA-MB-468 breast
  GI50: 4.12 µM
  TGI: 17.3 µM
M14 melanoma
  GI50: 11.1 µM
  TGI: 25.4 µM
T-47D breast
  GI50: 7.9 µM
  TGI: 24.9 µM
MCF7 breast
  GI50: 3.35 µM
  TGI: 13.9 µM
U251 CNS
  GI50: 4.66 µM
  TGI: 16 µM
HL-60(TB) leukemia
  GI50: 3.16 µM
  TGI: 20.5 µM
OVCAR-8 ovarian
  GI50: 3.72 µM
  TGI: 15.2 µM
OVCAR-4 ovarian
  GI50: 6.19 µM
  TGI: 20.7 µM
SK-OV-3 ovarian
  GI50: 13.3 µM
  TGI: 30.5 µM
MDA-MB-231 breast
  GI50: 4.25 µM
  TGI: 18 µM
SW-620 colon
  GI50: 3.61 µM
  TGI: 15.9 µM
SR leukemia
  GI50: 3.18 µM
  TGI: 14.8 µM
LOX IMVI melanoma
  GI50: 3.72 µM
  TGI: 14.4 µM
HCC-2998 colon
  GI50: 3.81 µM
  TGI: 15.3 µM
A549 NSCLC
  GI50: 3.66 µM
  TGI: 14.2 µM
RPMI-8226 leukemia
  GI50: 7.59 µM
  TGI: 25.4 µM
K-562 leukemia
  GI50: 4.06 µM
  TGI: 18.8 µM
SF-539 CNS
  GI50: 4.87 µM
  TGI: 17.2 µM
